From ChEMBL document CHEMBL3600384, “Highly potent artemisinin-derived dimers and trimers: Synthesis and evaluation of their antimalarial, antileukemia and antiviral activities” (Bioorg Med Chem, 2015)
Active and inactive are the calls of the source. The calls are words filed in the database; no cut-off is given here.

Tests used:
CCRF-CEM [1] = assay: Cytotoxicity against human CCRF-CEM cells assessed as cell viability after 72 hrs by resazurin assay; type: functional, cell-based
Plasmodium falciparum [2] = assay: Antimalarial activity against Plasmodium falciparum 3D7 infected in human erythrocytes assessed as parasite growth inhibition after 72 hrs by SYBR Green I assay; type: functional, organism-based; conditions: 3D7, 72 h
ADR5000 = assay: Cytotoxicity against human CEM/ADR5000 cells assessed as cell viability at 400 uM after 72 hrs by resazurin assay; type: functional, cell-based
CCRF-CEM [3] = assay: Resistance index, ratio of IC50 for human CEM/ADR5000 cells to IC50 for human CCRF-CEM cells; type: functional
[4] = Cytotoxicity against human CEM/ADR5000 cells assessed as cell viability after 72 hrs by resazurin assay; type: functional, cell-based; conditions: ADR5000, 72 h
[5] = Potency index, ratio of doxorubicin IC50 to compound IC50 for human CEM/ADR5000 cells; type: functional
Human betaherpesvirus 5 = assay: Antiviral activity against Human cytomegalovirus AD169 expressing GFP infected in HFF assessed as inhibition of viral replication after 7 days; type: functional, organism-based
HFF [6] = assay: Cytotoxicity against HFF up to 10 uM by light microscopic analysis; type: cell-based; conditions: human
HFF [7] = assay: Cytotoxicity against HFF up to 10 uM by fluorescence microscopic analysis; type: cell-based; conditions: human
Plasmodium falciparum [8] = assay: Antimalarial activity against Plasmodium falciparum NF54 infected in human erythrocytes after 48 hrs by [3H]hypoxanthine incorporation assay; type: functional, organism-based
[9] = Stability of the compound in freezing/thawing condition; type: physicochemical
[10] = Stability of the compound up to 56 degC; type: physicochemical
[11] = Human betaherpesvirus 5, AD169, 168 h, read-out: IC50

Row | Compound | IC50 (CCRF-CEM [1]) [nM] | IC50 (Plasmodium falciparum [2]) [nM] | Ratio IC50 (CCRF-CEM [3]) | IC50 [4] [nM] | IC50 (Human betaherpesvirus 5; [11]) [nM] | further results
1 | C[C@H]1[C@@H](CCCO)O[C@@H]2O[C@@]3(C)CC[C@H]4[C@H](C)CC[C@@H]1[C@@]24OO3 | 174000 | 11.6 | – | – | – | Activity (ADR5000): inactive
2 | C[C@H]1[C@@H](CCCOC(=O)C[C@H]2O[C@@H]3O[C@@]4(C)CC[C@H]5[C@H](C)CC[C@@H]([C@H]2C)[C@@]35OO4)O[C@@H]2O[C@@]3(C)CC[C@H]4[C@H](C)CC[C@@H]1[C@@]24OO3 | 90 | 2.6 | 2.22 | 200 | 310 | Ratio IC50 [5]: 3
3 | C[C@H]1[C@@H](OCC(C[C@H]2O[C@@H]3O[C@@]4(C)CC[C@H]5[C@H](C)CC[C@@H]([C@H]2C)[C@@]35OO4)C[C@H]2O[C@@H]3O[C@@]4(C)CC[C@H]5[C@H](C)CC[C@@H]([C@H]2C)[C@@]35OO4)O[C@@H]2O[C@@]3(C)CC[C@H]4[C@H](C)CC[C@@H]1[C@@]24OO3 | 2 | 12.8 | 245 | 490 | – | Activity (HFF [6]): Non-toxic; Activity (HFF [7]): Non-toxic; Ratio IC50 [5]: 3; IC50 (Human betaherpesvirus 5): ND(toxic)
4 | C[C@H]1[C@@H](CC(CO)C[C@H]2O[C@@H]3O[C@@]4(C)CC[C@H]5[C@H](C)CC[C@@H]([C@H]2C)[C@@]35OO4)O[C@@H]2O[C@@]3(C)CC[C@H]4[C@H](C)CC[C@@H]1[C@@]24OO3 (stereo not given in full) | 20 | 1.1 | 2.5 | 50 | – | IC50 (Plasmodium falciparum [8]): 0.87 nM
5 | COc1cccc2c1C(=O)c1c(O)c3c(c(O)c1C2=O)C[C@@](O)(C(=O)CO)C[C@@H]3O[C@H]1C[C@H](N)[C@H](O)[C@H](C)O1 [DOXORUBICIN] | 3 | – | 536.67 | 1610 | – | –
6 | C[C@H]1[C@H](OC(=O)CCC(=O)NCCCCCCCCNC(=O)CCC(=O)O[C@@H]2O[C@@H]3O[C@@]4(C)CC[C@H]5[C@H](C)CC[C@@H]([C@H]2C)[C@@]35OO4)O[C@@H]2O[C@@]3(C)CC[C@H]4[C@H](C)CC[C@@H]1[C@@]24OO3 | – | – | – | – | > 10000 | –
7 | C[C@H]1[C@H](OC(=O)CCC(=O)OCC(C[C@H]2O[C@@H]3O[C@@]4(C)CC[C@H]5[C@H](C)CC[C@@H]([C@H]2C)[C@@]35OO4)C[C@H]2O[C@@H]3O[C@@]4(C)CC[C@H]5[C@H](C)CC[C@@H]([C@H]2C)[C@@]35OO4)O[C@@H]2O[C@@]3(C)CC[C@H]4[C@H](C)CC[C@@H]1[C@@]24OO3 | 2 | 12.8 | 100 | 200 | 40 | Activity (HFF [6]): Non-toxic; Stability [9]: Stable; Activity (HFF [7]): Non-toxic; Stability [10]: Stable; Ratio IC50 [5]: 3
8 | C[C@@H]1CC[C@H]2[C@@H](C)C(=O)O[C@@H]3O[C@@]4(C)CC[C@@H]1[C@]32OO4 [ARTEMISININ] | – | – | 0.73 | – | > 10000 | –
9 | C[C@H]1[C@H](OC(=O)CCC(=O)O[C@@H]2O[C@@H]3O[C@@]4(C)CC[C@H]5[C@H](C)CC[C@@H]([C@H]2C)[C@@]35OO4)O[C@@H]2O[C@@]3(C)CC[C@H]4[C@H](C)CC[C@@H]1[C@@]24OO3 | 2750 | 2.6 | 1.01 | 2790 | 1040 | –
10 | C[C@H]1[C@H](OC(=O)CCC(=O)O)O[C@@H]2O[C@@]3(C)CC[C@H]4[C@H](C)CC[C@@H]1[C@@]24OO3 [ARTESUNATE] | 70 | 9 | 2.71 | 190 | 3800 | –
11 | C[C@H]1[C@@H](O)O[C@@H]2O[C@@]3(C)CC[C@H]4[C@H](C)CC[C@@H]1[C@@]24OO3 [ARTENIMOL] | 90 | 2.5 | 3 | 270 | > 10000 | –
12 | C[C@H]1[C@H](OC(=O)CCC(=O)NCC(O)CNC(=O)CCC(=O)O[C@@H]2O[C@@H]3O[C@@]4(C)CC[C@H]5[C@H](C)CC[C@@H]([C@H]2C)[C@@]35OO4)O[C@@H]2O[C@@]3(C)CC[C@H]4[C@H](C)CC[C@@H]1[C@@]24OO3 (stereo not given in full) | – | – | – | – | 2070 | –
13 | Nc1nc2c(ncn2COC(CO)CO)c(=O)[nH]1 [GANCICLOVIR] | – | – | – | – | 2600 | –
